# From ChEMBL document CHEMBL4813963, “Discovery of pyrazolo-thieno[3,2-d]pyrimidinylamino-phenyl acetamides as type-II pan-tropomyosin receptor kinase (TRK) inhibitors: Design, synthesis, and biological evaluation” (Eur J Med Chem, 2021)
# Columns and labels:
# [1] = target: T1, High affinity nerve growth factor receptor (Homo sapiens, UniProt P04629); assay: Inhibition of recombinant His-tagged human TRKA (441 to 796 residues) expressed in baculovirus expression system at 20 uM using 5-FAM-EEPLYWSFPAKKK-CONH2 as substrate preincubated for 1 hr followed by substrate addition in presence of ATP by mobility shift assay relative to control
# Target sequence in this assay (P04629 33-796 limits assumed): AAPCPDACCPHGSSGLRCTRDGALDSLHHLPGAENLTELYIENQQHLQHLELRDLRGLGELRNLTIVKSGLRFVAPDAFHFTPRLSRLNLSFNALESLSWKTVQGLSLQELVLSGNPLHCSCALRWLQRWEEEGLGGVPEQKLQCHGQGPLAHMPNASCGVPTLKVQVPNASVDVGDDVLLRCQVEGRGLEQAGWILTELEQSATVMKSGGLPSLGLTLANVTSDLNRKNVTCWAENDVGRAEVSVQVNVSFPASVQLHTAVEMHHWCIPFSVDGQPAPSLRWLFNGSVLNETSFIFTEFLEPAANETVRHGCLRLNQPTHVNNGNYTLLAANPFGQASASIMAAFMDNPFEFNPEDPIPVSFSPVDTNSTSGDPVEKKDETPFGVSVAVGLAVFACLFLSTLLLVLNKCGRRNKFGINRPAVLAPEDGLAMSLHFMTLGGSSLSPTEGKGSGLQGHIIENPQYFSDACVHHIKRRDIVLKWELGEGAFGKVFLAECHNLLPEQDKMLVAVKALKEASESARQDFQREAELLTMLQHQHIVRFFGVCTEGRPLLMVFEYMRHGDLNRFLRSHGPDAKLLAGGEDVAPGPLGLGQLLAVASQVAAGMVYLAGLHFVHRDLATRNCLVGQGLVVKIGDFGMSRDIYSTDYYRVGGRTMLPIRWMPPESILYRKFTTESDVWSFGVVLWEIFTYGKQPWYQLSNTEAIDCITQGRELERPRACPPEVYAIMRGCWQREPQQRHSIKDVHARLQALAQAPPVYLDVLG
# KM12 = assay: Cytotoxicity against human KM12 cells assessed as reduction in cell viability incubated for 72 hrs by resazurin based assay; format: functional; conditions: KM12, 72 h
# [2] = target: T1, High affinity nerve growth factor receptor; assay: Inhibition of recombinant His-tagged human TRKA (441 to 796 residues) expressed in baculovirus expression system using 5-FAM-EEPLYWSFPAKKK-CONH2 as substrate preincubated for 1 hr followed by substrate addition in presence of ATP by mobility shift assay
# Target sequence in this assay (P04629 whole entry, the tested form may be a part): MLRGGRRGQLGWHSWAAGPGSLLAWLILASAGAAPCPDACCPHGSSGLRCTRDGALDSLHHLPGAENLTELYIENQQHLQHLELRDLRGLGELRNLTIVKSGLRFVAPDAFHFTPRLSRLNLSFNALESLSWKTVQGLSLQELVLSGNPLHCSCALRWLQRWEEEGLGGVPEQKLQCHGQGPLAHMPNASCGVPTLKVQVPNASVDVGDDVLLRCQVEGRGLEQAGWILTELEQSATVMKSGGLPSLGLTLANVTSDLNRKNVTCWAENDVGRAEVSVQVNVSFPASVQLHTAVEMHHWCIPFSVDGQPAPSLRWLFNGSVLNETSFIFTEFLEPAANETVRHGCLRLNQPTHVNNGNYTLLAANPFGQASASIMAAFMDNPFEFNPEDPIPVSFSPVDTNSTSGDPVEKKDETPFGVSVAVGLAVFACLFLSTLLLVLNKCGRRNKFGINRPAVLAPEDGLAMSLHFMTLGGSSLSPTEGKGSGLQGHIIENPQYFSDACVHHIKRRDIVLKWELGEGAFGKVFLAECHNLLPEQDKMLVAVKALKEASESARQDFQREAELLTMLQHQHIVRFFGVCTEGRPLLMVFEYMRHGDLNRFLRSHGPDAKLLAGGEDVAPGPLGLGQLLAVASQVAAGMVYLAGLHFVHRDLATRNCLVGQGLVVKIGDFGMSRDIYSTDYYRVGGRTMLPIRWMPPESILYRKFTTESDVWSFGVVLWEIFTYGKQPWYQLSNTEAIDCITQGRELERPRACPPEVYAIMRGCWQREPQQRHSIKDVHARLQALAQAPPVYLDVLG
inhibition [1] [%],IC50 [2] [µM],SMILES,IC50 (KM12) [µM]
18,,CC(C)(C)c1cc(NC(=O)Cc2ccc(-c3ncnc4ccsc34)cc2)no1,86.5
,41.2,O=C(Cc1ccc(Nc2ncnc3ccsc23)cc1)N[C@@H]1CCCC[C@@H]1O,> 200
,22.6,C#Cc1cccc(NC(=O)Cc2ccc(Nc3ncnc4ccsc34)cc2)c1,38.8
